We go through two molecules from US5770595A, “Oxime substituted therapeutic compounds” (Cell Therapeutics, Inc., priority 1994, dated 1998).

The subject of series [1] is MCF-7, Hurdlich, RAS and NIH-3T3 cells. Briefly: cytotoxicity on several cell lines (BCECF viability). The class given is cell-based. The note with it: 24 hours; FIG. 13. The procedure:
Each inventive compound is investigated for cytotoxicity to determine appropriate doses for biological activity assays and to prevent cytotoxic reactions in in vitro assays when characterizing activity. Cells (e.g., NIH-3T3, Ras transformed 3T3 cells, malignant melanoma LD2 cells, etc.) are added to microtiter plates and drug is added about two days after plating. Cell viability is determined using a fluorescent viability slain (e.g., 2',7'-bis-(2-carboroxyethyl)-5-(and -6)-carboxyfluorescein acetoxymethyl ester, BCECF excitation 488 nm and emission 525 nm) 24, 48 or 72 hours after addition of the drug.
1522 is not cytotoxic to several cell lines. The cells lines used were MCF-7 a human breast cancer-derived line, Hurdlich cells a human stromal derived line, RAS a codon-12 transformed malignant murine line, and NIH-3T3 a non-Ras transformed parent line of RAS. The cells were treated with various concentrations of drug, and 24 hours later, stained for viability using BCECF and analyzed for fluorescent die uptake (indicating viable cells) using a fluorescence plate reader.

Series [2] concerns P388D1 cells. Briefly: TNF-α release from LPS-stimulated P388D1 cells. The note with it: 0.25 mM, LPS 10 μg/ml. The class given is cell-based, murine. The procedure: This example illustrates the ability of compound no. 1521 to inhibit TNF-α release from P388D1 cells (a murine monocyte/macrophage line) when stimulated with LPS. This assay is a model for septic shock. P388D1 cells (10^5) were treated with LPS at 10 μg/ml in RPMI media containing 10% fetal calf serum. Supernatants were assayed for TNF by an ELISA technique at various times following LPS stimulation. The cells were treated one hour prior to LPS stimulation with 0.25 mM compound no. 1521.

Series [3] relates to P388D1 cells. The series can be described thus: IL-1α release from LPS-stimulated P388D1 cells. The class given is cell-based, murine. The note with it: 0.25 mM, LPS 10 μg/ml. The procedure: This example illustrates the ability of inventive compound no. 1521 to inhibit IL-1α release from P388D1 cells when stimulated with LPS. This assay is a model for septic shock. P388D1 cells (10^5) were treated with LPS at 10 μg/ml in RPMI media containing 10% fetal calf serum. Supernatants were assayed for IL-1α by an ELISA technique at various times following LPS stimulation. The cells were treated one hour prior to LPS stimulation with 0.25 mM of compound no. 1521.

For series [4], the system named is U937 cells / activated human umbilical vein endothelial cells (HUVEC). The series can be described thus: adhesion of U937 cells to TNF-activated HUVEC. The class given is cell-based. The note with it: human TNF 20 ng/ml, 12 hours. The procedure: Another assay measures the effects of drug to inhibit adhesion of U937 cells to TNF-activated HUVEC cells In this experiment, HUVEC cells are induced with human TNF-α (20 ng/ml) and drug at varying concentrations for 14-16 hrs. U937 cells (a human monocyte cell line) are incubated and labeled with BCECF (10 μg/ml), a fluorescent dye. The U937 cell preparation (2.5×10^4 cells per well) is layered on top of the activated HUVEC cells. The cells are reverse spun to remove partially adhering and nonadhering U937 cell. The adherent U937 cells are measured by fluorescence on a fluorescent plate reader.
1521 to inhibit adhesion of U937 cells to activated human umbilical vein endothelial cells (HUVEC). HUVEC cells were activated with 20 ng/ml of human TNF for 12 hours. Compound no. 1521 was added to samples one hour prior to adding TNF. U937 cells preloaded with a fluorescent dye were added to the HUVEC cells and adhesion measured after washing. Compound no. […] Background adhesion of U937 cells to non-activated HUVEC is shown as a dashed line.

Regarding `CON=C(C)CCCCn1c(=O)c2c(ncn2C)n(C)c1=O` [Compound no. 1522], in series [1], the “cytotoxicity (viability by BCECF)” value is given as “non-toxic at therapeutic concentrations”.
Consider `CC(CCCCn1c(=O)c2c(ncn2C)n(C)c1=O)=NO` [Compound no. 1521], for which, in the series on P388D1 cells [2], the “inhibition of TNF-α release” value is “inhibited TNF release”. The “inhibition of IL-1α release” value in the series on P388D1 cells [3] was “inhibited IL-1α release”. Further, the “adhesion of U937 cells to activated HUVEC” value in series [4] is given as “reduced adhesion”.
